Columns and labels:
[1] = test system: CD4 T cells from healthy donors; assay: Large-scale CD4 T cell epitope mapping by IFN-γ ELISPOT (16 donors); assay type: cell-based, human; conditions: for nb positive T cell lines: across all 16 donors; for cumulative donor coverage (%): cumulative over peptides ranked by donor coverage; for Donor coverage ( %): of 16 donors; for responding donors: of 16 healthy donors, individual peptide 10 µg/ml; for response intensity ( %): percentage of 872 FVIII-specific T cell lines
Excerpt: PBMCs were purified from the whole blood of anonymous healthy donors, who gave informed consent (Etablissement Français du Sang, Rungis, France), using Ficoll-Paque®. Monocyte-derived dendritic cells (DCs) were produced from cells isolated using Percoll gradient by 5 days of culture in AIM-V medium (Invitrogen, Villebon-sur-Yvette, France) supplemented with 1,000 U/ml recombinant human (rh) IL-4 and rhGM-CSF (both from R&D Systems, Lille, France). Mature DCs were produced by two supplementary days of culture in the presence of LPS (1 µg/ml) and R848 (10µg/ml). CD4 T cells were isolated from autologous PBMCs by positive selection using magnetic labeling with anti-CD4 mAbs conjugated to magnetic microbeads followed by magnetic cell sorting, as recommended by the manufacturer (Miltenyi Biotec, Bergisch Gladbach, Germany). Immature DCs were loaded overnight at 37 °C with either 0.2 µM of rFVIII, 0.2 µM of ovalbumin, or 0.25 µM of KLH in 96-well U-bottom plates, while mature DCs were used for FVIII peptides (10 ug/ml). CD4 T cell lines were generated in vitro in IMDM (Invitrogen) supplemented with 10% human serum, 0.24 mM glutamine, 0.55 mM asparagine, 1.5 mM arginine (all amino acids from Sigma-Aldrich), 50 U/mL penicillin/50 μg/mL of streptomycin (Invitrogen), 20 IU/mL human IL-2, and 17 IU/ml human IL-7 (premium-grade; Miltenyi Biotec) by three once-per-week rounds of stimulation of CD4 T cells (200,000 per well) with autologous DCs (20,000 per well). 10,000 lymphocytes were collected at day 19 from each T cell line (expanded T cells contained in one well) and their specificity was assessed by using IFN-g ELISPOT.
The T cell lines and APCs were plated at equal number for both stimulated and unstimulated control conditions. […] The spot number was determined by using the ELISPOT Reader System (Autoimmun Diagnostika, Ebinger, Germany). HLA restriction was assessed using monoclonal antibodies (10 μg/ml) specific to HLA-DP (B7/21), HLA-DQ (SPVL3), or HLA-DR (L243).
Based on the T cell epitope prediction software NetMHCpan4.0 ([23]), we selected 63 20-mer peptides that are predicted for their ability to bind promiscuously, with a percentile score below 10%, at least four HLA class II molecules from a selection of 15 preponderant HLA-DR alleles in our panel (as shown in ST1). […] A total of 16 healthy donors with unrelated HLA typing (ST2) were used as sources of T cells to identify FVIII-specific CD4 T cell epitopes. Specific T cell lines were generated by in vitro T cell culture using FVIII and KLH. The peptide specificity of the T cell lines raised against FVIII was assessed by two independent IFN-γ ELISPOT using peptide pools and individual peptides. […] Furthermore, four independent healthy donors were used as sources of T cells to characterize the HLA restriction and to assess the reactivity of T cell lines generated with the 18 peptides toward rFVIII. T cell lines were amplified in vitro for 28 days through stimulation with the pool of 18 peptides and then tested through IFN-γ ELISPOT.

[2] = biological target: HLA-DRB1*0301 (Homo sapiens, UniProt P01903+P01911, A100K/A102G/A103R/A169T/F55Y/I96L/K41T/L162R/M171V/P40S/Q125H/Q178H/Q39Y/R42S/S66N/T106N/T262R/W38E/Y61H); assay: Peptide-MHCII competition binding assay; conditions: competition ELISA, pH 5.9, peptide 90.000nM – 0.9nM, HLA-DRB1 30 nM, biotinylated peptide 15nM, duplicate wells; ratios below 10 = good binding; reference peptide SFLLTDLINRRTPRVDGQ
Description: Quantitative peptide-MHCII competition binding assays were carried out to determine binding avidities of the 18 20-mer FVIII peptides to 6 HLA-DRB1. Data are presented as ratio between reference peptide IC50/FVIII-peptide IC50 tested. Briefly, non-biotinylated FVIII peptides have been diluted at a concentration of 20 mM in DMSO. 10-µl aliquots of serially diluted (90.000nM – 0.9nM in n-Octyl b-D-Glucopyranoside, 2.5 mg/ml in 1x phosphate buffer, pH 5.9) of non-biotinylated FVIII peptides, were added to duplicate wells of 96-well polypropylene plates. Serially diluted non-FVIII reference peptides known to bind to the specific HLA-DRB1 were added to separate wells as positive controls. Next, the biotinylated peptide at a concentration of 2mM was use to prepare 1000-fold pre-dilution to reach a final concentration of 15nM. The HLA-DRB1 proteins were diluted to 30 nM in n-Octyl β-D-Glucopyranoside, 2.5 mg/ml in 1x phosphate buffer, pH 5.9. […] SA-HRP (diluted 5000x in 1xPBS 0.1% Tween20) was added to each well. The plates were covered and incubated at room temperature for 60 min […] and washed. TMB (100 μl/well) was then added, and the plates were incubated at room temperature for 15-30 min. ELISA stopping solution (0.5M H2SO4) was added and then read on a FLUOstar OPTIMA fluorometer. Sigmoidal binding curves were simulated and IC50 values calculated for the FVIII peptides, based on their competition with the reference peptides for each HLA-DRB1. Data were reported as the ratio between the values of the tested peptide and of the reference peptide. Ratios below 10 correspond to good biding affinity.

| Sequence | nb positive T cell lines [1] | cumulative donor coverage (%) [1] | Donor coverage ( %) [1] | responding donors [1] | response intensity ( %) [1] | Ratio IC50 DRB1*0301 [2] |
| --- | --- | --- | --- | --- | --- | --- |
| ATRRYYLGAVELSWDYMQSD [P20-39, 20-mer FVIII peptide, A1 domain] | 43 | 81% | 62% | 10 | 4,93% | 850 |
| DHLFNIAKPRPPWMGLLGPT [P75-94, 20-mer FVIII peptide, A1 domain] | 38 | 81% | 69% | 11 | 4,36% | 40 |
| HPQSWVHQIALRMEVLGCEA [P2328-2347, 20-mer FVIII peptide, C2 domain] | 23 | – | 56% | 9 | 2,64% | 0.0 |
| INGYIMDTLPGLVMAQDQRI [P1940-1959, 20-mer FVIII peptide, A3 domain] | 14 | 94% | 56% | 9 | 1,61% | – |
| KARLHLQGRSNAWRPQVNNP [P2226-2245, 20-mer FVIII peptide, C2 domain] | 12 | – | 56% | 9 | 1,38% | 33 |
| KEPFSWIKVDLLAPMIIHGI [P2084-2103, 20-mer FVIII peptide, C1 domain] | 20 | 94% | 56% | 9 | 2,29% | 6.6 |
| KKEEYKMALYNLYPGVFETV [P1986-2005, 20-mer FVIII peptide, A3 domain] | 18 | – | 50% | 8 | 2,06% | – |
| KLARLHYSGSINAWSTKEPF [P2068-2087, 20-mer FVIII peptide, C1 domain] | 20 | – | 50% | 8 | 2,29% | – |
| LGQFLLFCHISSHQHDGMEA [P322-341, 20-mer FVIII peptide, A1 domain] | 27 | 81% | 62% | 10 | 3,10% | – |
| LLTRYLRIHPQSWVHQIALR [P2320-2339, 20-mer FVIII peptide, C2 domain] | 10 | – | 50% | 8 | 1,15% | 114 |
| LSHVDLVKDLNSGLIGALLV [P178-197, 20-mer FVIII peptide, A1 domain] | 19 | 81% | 56% | 9 | 2,18% | 0.05 |
| PPIIARYIRLHPTHYSIRST [P2161-2180] | 21 | – | 56% | 9 | 2,41% | 21 |
| RHYFIAAVERLWDYGMSSSP [P1715-1734, 20-mer FVIII peptide, A3 domain] | 16 | – | 50% | 8 | 1,83% | – |
| SLYISQFIIMYSLDGKKWQT [P2114-2133, 20-mer FVIII peptide, C1 domain] | 10 | – | 50% | 8 | 1,15% | 30 |
| VHSIFLEGHTFLVRNHRQAS [P285-304, 20-mer FVIII peptide, A1 domain] | 44 | 75% | 75% | 12 | 5,05% | 58 |
| YDTVVITLKNMASHPVSLHA [P100-119, 20-mer FVIII peptide, A1 domain] | 44 | 81% | 69% | 11 | 5,05% | 30 |

From article PMC10951066, “The self-reactive FVIII T cell repertoire in healthy individuals relies on a short set of epitopes and public clonotypes” (Frontiers in Immunology, 2024)
